The text below walks through data of patent publication US20110088107A1, “COMPOSITIONS AND METHODS FOR DERIVING OR CULTURING PLURIPOTENT CELLS” (priority 2009, published 2011).

The assay concerns NOD blastocysts (ICM explants). In words: NOD ES cell derivation from blastocysts in the presence of small molecules. The note with it: NOD/LtJ blastocysts, mESM with the inhibitors. Format: cell-based, mouse (NOD/LtJ). From the text:
NOD/ShiLtJ were obtained from the Jackson laboratory and bred in specific-pathogen-free animal facility. Control MEFs were made from 129SvJae mice. Non-NOD ES lines derived used in this study as controls were derived from matings between 129SvJae or B6D2F1 mice. To derive ES lines, ICM explants were derived from day 3.5 blastocysts following procedures previously described (Markoulaki et al., 2008). Where applicable, ES derivation medium was also supplemented with the indicated compounds (Table S2). Dissociation of the outgrowths by treatment with Trypsin was performed on day 5 after plating and the cells were further cultured in mESC derivation medium until colonies appeared (typically after 5-7 days). From then on, established ES lines were cultured in mESM condition supplemented with the indicated compounds. NOD […] ES lines were derived by similarly plating blastocysts in EpiSC-derivation medium (For 100 ml, we added 15 ml FBS (Hyclone), 5 ml KSR, 5 μl Lif (1×107 U ESGRO/ml; Chemicon), 100 μl Mek1 inhibitor (PD98059; Cell Signaling Technology), hFGF2 ([…]), 1 ml non-essential amino acids, 1 ml glutamine solution, and 1 ml pen/strep solution into DMEM/F12). ICM outgrowths were manually passaged after 5-7 days and were stably maintained in […] conditions. […]

SMILES strings stand for the structures.

As for `O=C1Cc2c([nH]c3ccc(Br)cc23)-c2ccccc2N1` [Kenpaullone, 9-bromo-7,12-dihydroindolo[3,2-d][1]benzazepin-6(5H)-one], the “# of ES lines derived” value came to 2 and the “ES derivation (% efficiency)” value was “(13%)”.
